Reference: patent US6008209A, “Method of using vitamin D3 analogs with bis C-20 side chains” (Hoffmann-La Roche Inc., priority 1998, dated 1999)

Columns and labels:
[1] = cited from earlier work
[2] = tested on: parathyroid hormone (serum PTH); assay: Serum PTH suppression in rat renal insufficiency model (7/8 nephrectomy, secondary hyperparathyroidism); type: in vivo, Female Sprague Dawley rats; settings: for PTH T = 1 - T = 0: po, seven days
Description: (§1) Female Sprague Dawley rats were anesthesized, their right kidney removed and 2-3 branches of the left renal artery were ligated to achieve 7/8 nephrectomy. They were placed on a high phosphorous diet (0.6% Ca and 0.8 phosphorous). Approximately 3-6 weeks after surgery, rats were bled to screen serum PTH levels and rats with PTH levels between 100-500 pg/ml were selected for the study.
(§2) 1 6 Formula Ia, 10 μg/kg/day, po
(§3) 2 6 Formula Ia, 1 μg/kg/day, po
(§4) 3 6 Formula Ia, 0.1 μg/kg/day, po
(§5) There was a pre-bleed (T=0) and each group was dosed daily for seven days by oral gavage with either the compound of Formula Ia (10, 1 or 0.1 μg/kg/day), vehicle control or 1,24(OH)2 vitamin D3 positive control. Compounds were predissolved in ethanol and diluted with vehicle (Miglyol 812) followed by evaporation of the ethanol.
(§6) After the last day of dosing, the animals were bled again (T=1) and sacrificed. Serum PTH assays were done with Nichols Institute Diagnostic Kit #40-2240. Serum calcium assays were done with Sigma Diagnostic Kit #587 with o-cresophthaleiri. Serum creatinine assays were done with Sigma Diagnostic Kit #1600-320 with […].

[3] = tested on: bone; settings: animal studies; cited from earlier work
[4] = tested on: PTH synthesis; settings: cited from earlier work
[5] = tested on: steroid-induced bone loss; settings: 0.5 to 1.0 micrograms/day plus calcium 1000 mg/day, with or without intranasal calcitonin 400 IU/day; cited from earlier work
[6] = tested on: ZR-75 cells; assay: Cell proliferation assay in ZR-75 breast cancer cells; type: cell-based, human; settings: for IC50: Homo sapiens, ZR75, 240 h, ZR-75, 10 days, MTT, read-out: IC50 (half-maximal reduction in 570 nm absorbance)
Description: ZR-75 cells are human mammary carcinoma cells that are positive for estrogen receptors. The potential activity of vitamin D3 analogs against breast cancer was assessed from inhibition of proliferation of ZR-75 cells in culture.
ZR-75 cells were plated at 12,500 cells/well in 24-well plates and incubated at 37° C. in 5% CO2 /95% air in RPMI medium containing 10% fetal bovine serum and 2 mM glutamine. Stock solutions of vitamin D3 analogs were prepared at a concentration of 10 mM in absolute ethanol and stored at -20° C. under argon. One day after plating, ZR-75 cells were refed with either control medium or medium containing varying concentrations of the vitamin D3 analog.
The IC50 value was defined as the concentration of the vitamin D3 analog corresponding to half-maximal reduction in 570 nm absorbance.

[7] = tested on: murine leukemia; settings: murine leukemia model systems; cited from earlier work
[8] = tested on: postmenopausal osteoporosis; settings: cited from earlier work
[9] = tested on: MCF-7 cells; assay: Cell proliferation assay in MCF-7 breast cancer cells; type: cell-based, human; settings: for IC50: Homo sapiens, MCF7, 168 h, MCF-7, 7 days, MTT, read-out: IC50 (half-maximal reduction in 570 nm absorbance)
Description: MCF-7 cells are human mammary carcinoma cells that are positive for estrogen receptors. The potential activity of vitamin D3 analogs against breast cancer was assessed from inhibition of proliferation of MCF-7 cells in culture.
MCF-7 cells were plated at 5000 cells/well in 96-well plates and incubated at 37° C. in 5% CO2 /95% air in Dulbecco's Modified Eagle Medium containing 10% fetal bovine serum 700 nM insulin, 2 mM glutamine, 0.1 mM MEM non-essential amino acids and 1 mM sodium pyruvate. Stock solutions of vitamin D3 analogs were prepared at a concentration of 10 mM in absolute ethanol and stored at -20° C. under argon. One day after plating, MCF-7 cells were refed with either control medium or medium containing varying concentrations of the vitamin D3 analog.
For each vitamin D3 analog, the IC50 value was determined from a graph relating the optical density at 570 nm to the concentration used. The IC50 value was defined as the concentration of the vitamin D3 analog corresponding to half-maximal reduction in 570 nm absorbance.

[10] = Serum calcium in rat renal insufficiency model (7/8 nephrectomy); type: in vivo, Female Sprague Dawley rats; design: Final Ca Levels: unit not given here; settings: for Final Ca Levels: po, seven days, serum
Description: as §1, §2, §3, §4, §5, §6

C=C1/C(=C\C=C2/CCC[C@]3(C)[C@@H]([C@H](C)CCCC(C)(C)O)CC[C@@H]23)C[C@@H](O)C[C@@H]1O [1,25(OH)2 vit. D3, 1,25-Dihydroxy-cholecalciferol]
hypercalcemia in vivo ([1]; high dose treatment): hypercalcemia observed with high dose treatment | therapeutic ratio ([1]; human usage): poor therapeutic ratio (hypercalciuria and hypercalcemia as well as nephrotoxicity) | hypercalcemic effects ([1]; narrow therapeutic window, especially at high doses): potent hypercalcemic effects | PTH T = 1 - T = 0 ([2]; 0.1 μg/kg (table 2; table 1: 0.2 μg/kg/day)): -66 pg/mL | bone anabolic activity [3]: suggested bone anabolic activity | suppressive action on PTH synthesis [4]: direct suppressive action on PTH synthesis | steroid-induced bone loss [5]: prevented steroid-induced bone loss | IC50 [6]: 13 nM | anti-proliferative and differentiating effect [7]: not only an anti-proliferative effect, but also a differentiating effect | lower rate of new vertebral fractures versus elemental calcium 1000 mg/day ([8]; 0.25 microgram twice daily, 3 years, mild to moderate disease): 3 fold | hypercalcaemia ([8]; at recommended dosages): infrequent and mild | therapeutic window: proximity of therapeutic and toxic doses ([8]; human, in vivo): close proximity of therapeutic and toxic doses | tolerability ([8]; overall): well tolerated | IC50 [9]: 40 nM

C=C1/C(=C\C=C2/CCC[C@]3(C)[C@@H](C(CCCC(C)(C)O)CCCC(C)(C)O)CC[C@@H]23)C[C@@H](O)C[C@@H]1O [Formula Ia, (1α,3β,5Z,7E)-21-(3-hydroxy-3-methylbutyl)-9,10-Secocholesta-5,7,10, (19)-triene-1,3,25-triol]
PTH T = 1 - T = 0 ([2]; 0.1 μg/kg/day): 112 pg/mL | PTH T = 1 - T = 0 ([2]; 1 μg/kg/day): -124 pg/mL | PTH T = 1 - T = 0 ([2]; 10 μg/kg/day): -132 pg/mL | suppressing the elevated levels of parathyroid hormone, versus 1,25(OH)2 vit. D3 ([2]; in words): more effective than 1,25(OH)2 vit. D3 | IC50 [6]: 0.3 nM | potency relative to 1,25-dihydroxy-cholecalciferol in inhibition of ZR-75 growth ([6]; ZR-75): more than 40 times | Final Ca Levels ([10]; 0.1 μg/kg/day): 10.20 | Final Ca Levels ([10]; 1 μg/kg/day): 10.35 | Final Ca Levels ([10]; 10 μg/kg/day): 11.97 | elevated calcium levels ([10]; in words): without causing elevated calcium levels | IC50 [9]: 0.8 nM | potency relative to 1,25-dihydroxy-cholecalciferol in inhibition of MCF-7 growth ([9]; MCF-7): approximately 50 times
